Results published in patent US8138314B2, “Compositions and methods of monoclonal and polyclonal antibodies specific for T cell subpopulations” (Beth Israel Deaconess Medical Center, Inc., priority 2000, dated 2012).

What was measured:
Type in all cases: cell-based, human
[1] = system: invariant NK T cells; experiment: 6B11 FACS sort or magnetic bead immunoaffinity purification of PBMC followed by expansion; conditions: for Yield of invariant T cells: addition during expansion of 6B11 bead purified cells (FIGS. 12-17)
Experimental: Starting with PBMC in which approximately 0.05% of the lymphocytes in PBMC are invariant T cells, approximately 5-30% of the purified and expanded cells were invariant T cells.
PBMC or another tissue source is blocked with autologous serum at 4° C. An antibody reactive with invariant T cells (e.g., 6B11 or 3A6 antibody) is added at a ratio of about 1-10 μg antibody/10^7-8 PBMC and incubated for 20 minutes at 4° C. The antibody used in this method may be directly labeled with a conjugate such as FITC or biotin, or the antibody may be indirectly labeled with second reagent (e.g., anti-IgG-Fluorochrome or streptavidin-Fluorochrome). One or more other antibodies labeled with different fluorophores may also be added (FIGS. 7A-7C and 9). The solution of cells and antibodies is then washed using PBS or any other physiological buffer to remove unbound antibody.
If desired, the settings of the FACS cell sorter may be adjusted using either a positive (e.g., general anti-T cell antibody) or negative control antibody. The sample of interest may be analyzed at a rate of approximately 100 million cells per hour using a high speed FACS sorter (e.g., ‘MoFlo’FACS sorter). The purified T cells may be expanded in T cell media [e.g., 10% Fetal Bovine or human autologous or AB pooled serum in RPMI-1640 or equivalent media supplemented with buffer (e.g. Hepes), glutamine, and antibiotic (e.g., gentamicin)] in the presence of a mitogen such as PHA, an anti-CD3 antibody, the 6B11 antibody, the 3A6 antibody, and/or α-GalCer antigenic stimulus CD3 monoclonal antibody (Exley et al. 1997 and 1998, supra; Wilson et al., Nature 391:177, 1998). The antibody may be in solution or plate bound. Irradiated autologous feeders and IL-2 (10-100 U/ml) may also be added immediately or added at any time point during expansion. IL-7 (˜1-10 ng/ml) and/or IL-15 (˜1-10 ng/ml) may increase invariant NK T cells yields (e.g. Wilson et al. 1998, supra; van der Vliet et al. Journal of Immunological Methods 247:61-72, 2000). Dexamethasone or a related selective immune suppressive agent (˜1 μM) may preferentially enhance the growth of invariant NK T cells while inhibiting growth of conventional T cells (e.g. Milner et al., J. Immunol. 163(5):2522-25229, 1999). The media is replaced about twice a week with fresh media. During or subsequent to expansion (e.g., 2-4 weeks after expansion has begun), the T cells may be phenotypically analyzed by FACS. This analysis may be performed by staining with 6B11, anti-Vα24, anti-Vβ11, anti-CD4, anti-CD8αβ, or anti-CD161 antibodies.
PBMC or another tissue source is blocked with 1-10% autologous serum by mixing at 4° C. in PBS or other physiological buffer. One or more antibodies that are reactive with invariant T cells (e.g., 6B11 or 3A6 antibody) is added at a ratio of about 1-10 μg monoclonal antibody/10^7-8 PBMC is incubated for 20 minutes at 4° C. The antibody used in this method may be directly labeled with a conjugate such as FITC or biotin or the antibody may be indirectly labeled with second reagent (e.g., anti-IgG-Fluorochrome or streptavidin-Fluorochrome). One or more other antibodies labeled with different fluorophores may also be added (FIGS. 7A-7C and 9). The solution of cells and antibodies is then washed using PBS or any other physiological buffer. Magnetic beads, such as ˜10-100 μl Miltenyi MACS Microbeads Anti-mouse IgG #484 or MACS Steptavidin Microbeads #481 per 10^7-8 PBMC; 10^5-7 Dynal Anti-IgG #M450 beads per 10^7-8 PBMC are added and the solution is mix at 4° C. […] The washed, purified cells are placed into multi-wells with T cell media [10% Fetal Bovine or human autologous or AB pooled serum in RPMI-1640 or equivalent media supplemented with buffer (e.g. Hepes), glutamine, and antibiotic (e.g. gentamicin)]. The cells may be expanded using a monoclonal antibody that is directly bound to the beads or in solution. […]

[2] = system: Vα24^+ Vβ11^+ invariant NK T cells; experiment: Ex vivo expansion of FACS purified Vα24^+ T cells with α-GalCer and autologous irradiated PBMCs, flow cytometry
Experimental: (§1) Peripheral blood (10-20 ml) was drawn in heparin containing tubes from healthy donors and prostate cancer patients who had given their informed consent. PBMCs were isolated using Ficoll-Paque (Amersham Pharmacia, Uppsala, Sweden). Vα24 positive T cells were stained with an anti-Vα24 monoclonal antibody (C15) (Coulter, Miami, Fla.) followed by a goat anti-mouse IgG (H^+L) FITC conjugate (KPL, Gaithersburg, Md.) and were sorted by high speed FACS (Modular Flow FACS, Cytomation, Boulder, Colo.) (Dellabona et al., J. Exp. Med. 180:1171, 1994). Autologous PBMCs were irradiated (5000 rads) and used as APCs. The FACS purified Vα24^+ cells were initially co-cultured in 96 well flat bottomed plates (approximately 20,000 per well) with equal numbers of autologous irradiated PBMCs in the presence of α-GalCer (50 ng/ml, KRN7000, Kirin Brewery Co., Gunma, Japan) and recombinant IL-2 (100 U/ml) (National Cancer Institute, Bethesda, Md.). Cultures were then gradually expanded into 24 well plates using the same medium. In some cultures, human recombinant IL-12 (1 ng/ml) (Genetics Institute, Cambridge, Mass.) was added during the last week of culture.
Phenotypic analysis of α-GalCer expanded cells was performed by two or three color flow cytometery after three to four weeks in culture. Previous reports have shown that dual staining for Vα24 and Vβ11 is a marker of invariant NK T cells, as Vα24 and Vβ11 are used very infrequently by bulk T cells (Dellabona et al., J. Exp. Med. 180:1171, 1994; Exley et al., J. Exp. Med. 186:109, 1997; Prussin and Foster J. Immunol. 159:5862, 1997). Antibodies used were anti-Vα24 PE, anti-Vβ11 FITC, anti-CD8β PE (Immunotech), anti-CD3 Cychrome, anti-CD161 PE, and anti-CD4 Cychrome (PharMingen, La Jolla, Calif.). As described previously (Exley et al., J. Exp. Med. 186:109, 1997; Exley et al., J. Exp. Med. 188:867, 1998), approximately 1×10^6 cells were suspended in 50 μl of FACS buffer (phosphate buffered saline with 1% fetal bovine serum and 0.1% NaN3) in single wells of 96 well plates (Exley et al., J. Exp. Med. 186:109, 1997; Exley et al, J. Exp. Med. 188:867, 1998). Non-specific antibody binding was blocked by pre-incubating cells with 10% human serum for 15 minutes on ice. Antibodies were then added to cell suspensions and incubated for 20 minutes on ice. Cells were washed twice with FACS buffer and analyzed using a FACScan (Becton Dickinson) with Cell Quest Software.
Due to the small numbers of invariant NK T cells in peripheral blood, one round of ex vivo expansion was carried out to further assess the frequency and function of these cells. Invariant NK T cells from healthy donors and advanced prostate cancer patients were isolated from peripheral blood through an initial FACS purification with a Vα24 specific monoclonal antibody, followed by selective expansion in vitro for three to four weeks with α-GalCer and autologous irradiated PBMCs as a source of APCs. T cells were then analyzed by dual staining with Vα24 and Vβ11 or 6B11 monoclonal antibodies.

[3] = system: prostate cancer derived invariant NK T cells; experiment: IL-12 treatment of prostate cancer derived invariant NK T cells during last week of culture, cytokine ELISA
Experimental: as §1, with “Cultures were then gradually expanded into 24 well plates using the same medium. In some cultures, human recombinant IL-12 (1 ng/ml) (Genetics Institute, Cambridge, Mass.) was added during the last week of culture.” left out
In addition to being present at reduced levels, invariant NK T cells have reduced activity in prostate cancer patients. […] Released cytokine levels were determined in triplicates by capture ELISA with matched antibody pairs in relation to cytokine standards (Endogen, Inc. Cambridge, Mass.). […]
As invariant NK T cells may contribute to the anti-tumor effects of IL-12, it was next determined whether these cancer patient derived cells could respond to IL-12. […]

[4] = system: CD1d-reactive Vα24^+Vβ11^+ T cell lines; experiment: Ex vivo expansion of invariant NK T cell lines with IL-12, stimulation with anti-CD3 and CD161 antibody; conditions: for IFN-γ / IL-4 / Proliferation: plate-bound anti-CD3 and excess CD161 antibody
Excerpt: NK T cells, CD1d-reactive T cells, or JαQ^+ T cells may be biased towards Th1-like NK or lymphokine-activated killer (LAK)-like cytotoxicity of invariant T cells, as well as, IFN-γ production to potentially augment their in vivo anti-tumor or anti-pathogen activity.

[5] = expansion using α-GalCer after expansion using 6B11
[6] = addition during expansion, at the concentrations tested (FIGS. 12-17)

For `CCCCCCCCCCCCCCCCCCCCCCCCCC(=O)N[C@@H](CO[C@H]1O[C@H](CO)[C@H](O)[C@H](O)[C@H]1O)[C@H](O)[C@H](O)CCCCCCCCCCCCCC` [α-GalCer, α-galactosylceramide], the “Number of invariant T cells” value [1, 5] was “did increase the number of invariant T cells”, the “Purity of invariant T cells” value [1, 5] was “did not improve the purity of invariant T cells” and the “Invariant NK T cells among expanded cells” value ([2]; androgen ablation refractory prostate cancer patient (FIG. 21B)) was 13.6%. For the same molecule, the “Invariant NK T cells among expanded cells” value ([2]; androgen ablation treated prostate cancer patient in remission (FIG. 21C)) was 75%, the “Invariant NK T cells among expanded cells” value ([2]; healthy donor (FIG. 21A)) was 98.5% and the “Vα24^+ Vβ11^+ population of total cells” value ([2]; healthy donor, α-GalCer and autologous irradiated PBMCs (FIG. 20B)) was 94.4%. For the same molecule, the “Recovery of Vα24^+ Vβ11^+ invariant NK T cells, mean” value ([2]; healthy donors (FIG. 21D)) was greater than 80%, the “Recovery of Vα24^+ Vβ11^+ invariant NK T cells, mean” value ([2]; series of advanced androgen independent prostate cancer patients (FIG. 21D)) was 10% and the “Expanded Vα24^+ Vβ11^+ T cells expressing CD161” value ([2]; series of healthy donors, each donor) was greater than 70%.

For phytohemagglutinin [PHA], the “Vα24^+ Vβ11^+ T cell population after stimulation” value ([2]; FACS purified Vα24^+ T cells stimulated with mitogen (FIG. 20A)) was “yielded only a minor population of Vα24^+ Vβ11^+ T cells”.

With “IL-15: cytokine added to T cell medium at 10 ng/ml” the “Yield of invariant T cells” value [1] was “increased the yield of invariant T cells” and the “Purity of invariant T cells” value [1, 6] was “did not increase the purity of invariant T cells”.

B1: IL-7: cytokine added to T cell medium at 10 ng/ml (protein, UniProt P13232 26-177, looked up)
Interleukin-7: DCDIEGKDGKQYESVLMVSIDQLLDSMKEIGSNCLNNEFNFFKRHICDANKEGMFLFRAARKLRQFLKMNSTGDFDLHLLKVSEGTTILLNCTGQVKGRKPAALGEAQPTKSLEENKSLKEQKKLNDLCFLKRLLQEIKTCWNKILMGTKEH
B1 was tested, and the “Yield of invariant T cells” value [1] was “increased the yield of invariant T cells” and the “Purity of invariant T cells” value [1, 6] was “did not increase the purity of invariant T cells”.

B2: IL-12: human recombinant IL-12 (Genetics Institute), cytokine biasing T cells towards Th1 responses (protein, UniProt P29459 23-219; P29460 23-328, looked up)
Interleukin-12 subunit alpha: RNLPVATPDPGMFPCLHHSQNLLRAVSNMLQKARQTLEFYPCTSEEIDHEDITKDKTSTVEACLPLELTKNESCLNSRETSFITNGSCLASRKTSFMMALCLSSIYEDLKMYQVEFKTMNAKLLMDPKRQIFLDQNMLAVIDELMQALNFNSETVPQKSSLEEPDFYKTKIKLCILLHAFRIRAVTIDRVMSYLNAS
Interleukin-12 subunit beta: IWELKKDVYVVELDWYPDAPGEMVVLTCDTPEEDGITWTLDQSSEVLGSGKTLTIQVKEFGDAGQYTCHKGGEVLSHSLLLLHKKEDGIWSTDILKDQKEPKNKTFLRCEAKNYSGRFTCWWLTTISTDLTFSVKSSRGSSDPQGVTCGAATLSAERVRGDNKEYEYSVECQEDSACPAAEESLPIEVMVDAVHKLKYENYTSSFFIRDIIKPDPPKNLQLKPLKNSRQVEVSWEYPDTWSTPHSYFSLTFCVQVQGKSKREKKDRVFTDKTSATVICRKNASISVRAQDRYYSSSWSEWASVPCS
With B2 the IFN-γ production ([3]; 1 ng/ml during the last week of culture) was “marked increase in IFN-γ production”, the “Ratios of IFN-γ/IL-4 production” value ([3]; 1 ng/ml during the last week of culture (FIG. 22E)) was “comparable to those in the healthy donors” and the IFN-γ/IL-4 ([4]; line 1, established with IL-12) was greater than 100. The IFN-γ ([4]; line 1, established with IL-12) was greater than 500, the IL-4 ([4]; line 1, established with IL-12) was 4.8 and the Proliferation ([4]; line 1, established with IL-12) was 56593. It also gave an IFN-γ/IL-4 ([4]; line 2, established with IL-12) of 207, an IFN-γ ([4]; line 2, established with IL-12) of 331.8 and an IL-4 ([4]; line 2, established with IL-12) of 1.6. The Proliferation ([4]; line 2, established with IL-12) was 42499.
